Results from PubChem BioAssay (NCI).
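Cells were grown in 96-well plates and exposed to each compound for 48 hours at five concentrations; endpoints were interpolated linearly between bracketing concentrations, or set to the highest concentration if not reached. Abbreviation: GI50, concentration required for 50% inhibition of growth. Definition used: TGI = concentration required for complete inhibition of growth.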

Tests used:
Experiment in all cases: inhibition of tumour cell growth, NCI panel, 48 h
[1] = system: OVCAR-5 ovarian
[2] = system: LOX IMVI melanoma
[3] = system: HCC-2998 colon
[4] = system: UO-31 renal
[5] = system: MDA-MB-231 breast
[6] = system: NCI-H23 lung
[7] = system: 786-0 renal
[8] = system: UACC-62 melanoma
[9] = system: SK-MEL-28 melanoma
[10] = system: HL-60(TB) leukemia

| SMILES | GI50 [1] | TGI [1] | GI50 [2] | TGI [2] | GI50 [3] | TGI [3] | GI50 [4] | TGI [4] | GI50 [5] | TGI [5] | GI50 [6] | TGI [6] | GI50 [7] | TGI [7] | GI50 [8] | TGI [8] | GI50 [9] | TGI [9] | TGI [10] |
| --- | --- | --- | --- | --- | --- | --- | --- | --- | --- | --- | --- | --- | --- | --- | --- | --- | --- | --- | --- |
| CCCCCCN1CCN(Cc2ccc(N(CC)CC)cc2)C(=O)C1=O | 5.41 µM | > 100 µM | 7.95 µM | > 100 µM | 6.45 µM | 28.2 µM | 5.22 µM | > 100 µM | 4.97 µM | > 100 µM | 4.05 µM | 62.5 µM | 4.88 µM | > 100 µM | 3.54 µM | > 100 µM | 7.17 µM | > 100 µM | – |
| O=CN1CCN(C=S)CC1 | – | > 100 µM | – | > 100 µM | – | > 100 µM | – | > 100 µM | – | – | – | > 100 µM | – | > 100 µM | – | > 100 µM | – | > 100 µM | > 100 µM |
| C=C1C(=O)O[C@H]2C[C@@H]1CCC1(C)OC1CC/C(C)=C/CC[C@H]2C (some centres undefined) | 15.9 µM | 30 µM | 24 µM | 38.6 µM | 18.9 µM | 33.1 µM | 29.8 µM | 86.6 µM | 17.7 µM | 32.2 µM | 19.6 µM | 37.1 µM | 18.4 µM | 33.1 µM | 17.5 µM | 31.3 µM | – | – | – |
| CNC(=O)OCc1[nH]ccc2c(C)c3nc4ccc(OC)cc4c3cc12 | – | > 100 µM | – | – | – | > 53.5 µM | – | > 53.9 µM | – | – | – | > 22.2 µM | – | 20.5 µM | – | > 56.7 µM | – | > 81 µM | 19 µM |
| CC[C@@]1(O)C(=O)OCc2c1cc1n(c2=O)Cc2cc3c(NC(=O)CN)cccc3nc2-1 | – | 63.8 µM | – | – | – | 9.05 µM | – | 3.55 µM | – | > 73 µM | – | 4.26 µM | – | 3 µM | – | 7.42 µM | – | > 100 µM | – |
| COc1ccc(C2=C(c3cc(OC)c(OC)c(OC)c3)C(=O)OC2)cc1OC | 0.379 µM | > 48.4 µM | 0.428 µM | > 49.4 µM | 0.025 µM | 0.299 µM | 0.284 µM | > 50.9 µM | 0.576 µM | > 75.9 µM | 0.0251 µM | 13.4 µM | 0.0522 µM | > 62.3 µM | 0.336 µM | > 79.5 µM | 47.6 µM | > 100 µM | – |
| COC(=O)C1=Cc2c(cc(OC)c(OC)c2OC)[C@H](c2ccc(OC)c(OC)c2OC)C1C(=O)OC (some centres undefined) | – | > 100 µM | – | > 100 µM | – | > 100 µM | – | > 100 µM | – | – | – | > 100 µM | – | > 100 µM | – | > 100 µM | – | > 100 µM | > 100 µM |
| O=C1C=CC(=O)c2c1ncc1c2nc2sccn21 | 19.8 µM | 40.1 µM | 29.9 µM | > 100 µM | 78.9 µM | > 100 µM | 13.8 µM | 72.3 µM | 14.6 µM | 39 µM | 22.2 µM | 83.7 µM | 15.5 µM | 36.3 µM | 21.8 µM | 45.2 µM | 22.9 µM | 47.2 µM | – |
| NC(N)=N/N=C/c1c(-c2ccc(Cl)c([N+](=O)[O-])c2)nc2ccccn12 | 1.73 µM | 3.21 µM | – | – | 1.5 µM | 3.1 µM | 1.71 µM | 3.79 µM | 1.69 µM | 3.29 µM | 1.92 µM | 3.95 µM | 0.512 µM | 1.9 µM | – | – | – | – | – |
| Clc1cc(Cl)cc(Nc2nc3ccccc3nc2-c2cccs2)c1 | – | > 100 µM | – | > 100 µM | – | > 100 µM | – | > 100 µM | – | – | – | > 100 µM | – | 31.7 µM | – | – | – | – | > 100 µM |
| COc1ccc(/C=C\c2cc(OC)c(OC)c(OC)c2)cc1OCC(=O)Nc1nc2ccc(OC(F)(F)F)cc2s1 | 31.2 µM | > 100 µM | 4.77 µM | > 100 µM | 17.1 µM | > 100 µM | 4.37 µM | > 100 µM | 5.16 µM | > 100 µM | 4.39 µM | > 100 µM | 54.3 µM | > 100 µM | 5.11 µM | > 100 µM | 4.57 µM | > 100 µM | – |
| NC1=C(Cl)C(=O)c2ccccc2C1=O | – | 23.7 µM | – | 7.91 µM | – | 24.4 µM | – | 29.9 µM | – | – | – | 6.32 µM | – | 20.2 µM | – | 2.76 µM | – | 11.3 µM | 45.4 µM |
| C[Si]12OCCCN(CCO1)CCO2 | – | > 100 µM | – | – | – | > 100 µM | – | > 100 µM | – | – | – | > 100 µM | – | > 100 µM | – | > 100 µM | – | > 100 µM | – |
| CC1CC2(CCC1OCc1ccccc1)OCCO2 (centres undefined) | – | – | – | > 100 µM | – | > 100 µM | – | > 100 µM | – | – | – | > 100 µM | – | > 100 µM | – | > 100 µM | – | – | > 100 µM |
